Laboratory results reported in PMC12250754, “Phytochemical Screening and Biological Activities of Lippia multiflora Moldenke” (Molecules, 2025).
Values after ≈ are worked out from the molar mass of the structure shown. Like-named read-outs stand apart in the source and are kept apart here. Marks after values point to notes of the source that are not given here.

What was measured:
Reducing power assay = settings: mean ± SD, n = 3
Description: The reducing capacity of the crude extracts was estimated as described by Pereira et al. (2013). Fifty microliters of the crude extracts were mixed with fifty microliters of sodium phosphate buffer (0.2 M, pH 6.6). After serial dilution, a potassium hexacyanoferrate (1% aqueous, 50 μL) solution was added. A trichloroacetic acid (10%, 50 μL) solution was added after 20 min of incubation at 50 °C. Eighty microliters of each mixture was moved to another 96-well plate containing eighty microliters of distilled water. […] All the crude extracts were tested in triplicate.

[1] = DPPH free radical scavenging assay; settings: mean ± SD, n = 3
Description: The DPPH free radical scavenging ability was evaluated for the crude extracts using the DPPH (2,2-diphenyl-1-picrylhydrazyl) assay using a modified spectrophotometric method of Motamed and Naghibi (2010) [81]. The crude extracts (100 µL) were added to a 96-well plate containing distilled water (100 µL). After serial dilution, a 0.3 M DPPH/methanol (200 µL) solution was added to the mixture. The mixture was left at room temperature for 30 min, and the absorbance was measured using a SoftMax^R Pro 6 (version 6.3) microplate reader at 517 nm. All the crude extracts were tested in triplicate.
The percentage of radical scavenging was calculated by the following formula:% Free RSA = [(ADPPH − Asample)/(ADPPH)] × 100(2) where ADPPH is the absorbance of the DPPH solution and Asample is the absorbance of the samples and DPPH. The ability of the crude extracts to inhibit 50% of the free radical (IC50) was extrapolated from a graph of % RSA against concentration.

[2] = cited from earlier work
[3] = cited from earlier work; remark: listed apart in the source
[4] = parameters: method as in earlier work; settings: ref 65 (Gülçin et al. 2012); cited from earlier work
[5] = parameters: method as in earlier work; settings: ref 65 (Gülçin et al. 2012); cited from earlier work; remark: listed apart in the source
Vero cells = assay: MTT cytotoxicity assay; format: cell-based, African green monkey; settings: Chlorocebus sabaeus, 48 h, Vero monkey kidney cells, two days incubation, mean ± SD, n = 3
Description: African green monkey (Vero) kidney cells (ATCC CCL-81, Cellonex, Johannesburg, South Africa) were cultured in Minimal Essential Medium (MEM), which consisted of Earle’s Balanced Salt Solution (EBSS) and L-Glutamine (2.0 mM) (Cytiva Hyclone, Marlborough, MA, USA) and was supplemented with 10% fetal bovine serum (FBS) and 1% penicillin/streptomycin (P/S, Biowest, Nuaille, France). These cells were incubated for 48 h at 37 °C in a 95% air and 5% CO2 humidified incubator (Nϋve, Ankara, Turkey). The cells were trypsinized with 0.25% trypsin/EDTA (Cytiva Hyclone, Marlborough, MA, USA) and split at a ratio of 1:5 for further passaging at 70 to 80% confluency. […]
The 3-(4,5-dimethylthiazol-2-yl)-2,5-diphenyltetrazolium bromide (MTT) cytotoxicity assay was determined as described by Mariri et al. (2024). The cytotoxic effects of the crude extracts of Lippia multiflora were evaluated against Vero cells. […] The mixture was kept in the dark for 15 min, and the absorbance was measured spectrophotometrically at 570 nm on a SpectraMax iD3 multi-mode microplate reader (Winooski, VT, USA). The cell viability was calculated as the percentage (%) of negative control (0.5% dimethyl sulfoxide; see Equation (3)).
The extracts were calculated using the following equation:(3) Cell viability%=Abssample−AbsBlank/Absnegative control−AbsBlank×100 where Abs is the absorbance.

O=C1O[C@H]([C@@H](O)CO)C(O)=C1O [Ascorbic acid, ascorbic acid]
Reducing Power IC0.5 (Reducing power assay): 0.355 ± 0.393 ^a µg/mL
DPPH IC50 [1]: 44.308 ± 9.813 ^b µg/mL

COc1ccc(-c2coc3cc(O[C@@H]4O[C@H](CO)[C@@H](O)[C@H](O)[C@H]4O)ccc3c2=O)cc1 [Compound 8, Formononetin-7-O-glucoside (Ononin)]
DPPH radical IC50 ([2]; ref 62 (Zgórka et al. 2022)): 30.18 ± 0.37 µg/mL
ABTS radical IC50 ([3]; ref 62 (Zgórka et al. 2022)): 30.30 ± 0.18 µg/mL

C[C@@H]1O[C@@H](Oc2c(-c3ccc(O)c(O)c3)oc3cc(O)cc(O)c3c2=O)[C@H](O)[C@H](O)[C@H]1O [Compound 10, Quercitrin]
DPPH radical scavenging IC50 ([2]; isolated from ethyl acetate stem of Lippia graveolens, ref 70 (González Güereca et al. 2007)): 11.24 ± 1.10 µg/mL

CCCCC[C@H](O)CC(=O)CCc1ccc(O)c(OC)c1 [Compound 11, 6-Gingerol]
DPPH radical scavenging EC50 ([2]; isolated from rhizome of Zingiber officinale, ref 67 (Wang et al. 2003)): 23.07 µg/mL

Oc1cc(O)c2c(c1)O[C@H](c1cc(O)c(O)c(O)c1)[C@H](O)C2 [Compound 14, (−)-Epigallocatechin]
DPPH radical scavenging IC50 ([2]; from Japanese knotweed rhizome bark extract, ref 64 (Jug et al. 2021)): 1.5 µg/mL^−1

COC(=O)C1=COC(C)C2CN3CCC4(C(=O)Nc5c4ccc(OC)c5OC)C3CC12 (stereo not drawn) [Compound 15, Isomajdine]
Ferrous ion (Fe^2+) chelating activity EC50 [4]: 10.05 µg/mL
DMPD scavenging EC50 [5]: 32.09 µg/mL
ABTS scavenging EC50 ([3]; ref 65 (Gülçin et al. 2012)): 34.11 µg/mL

COc1cccc2c1C(=O)c1c(O)c3c(c(O)c1C2=O)C[C@@](O)(C(=O)CO)C[C@@H]3O[C@H]1C[C@H](N)[C@H](O)[C@H](C)O1 [Doxorubicin]
IC50 (Vero cells): 4.97 ± 0.83 µg/mL (≈ 9.14 µM)

O=C(O)c1cc(O)c(O)c(O)c1 [Gallic acid, gallic acid]
Reducing Power IC0.5 (Reducing power assay): 8.210 ± 11.257 ^a µg/mL
DPPH IC50 [1]: 37.340 ± 17.529 ^ab µg/mL

O=c1c(O)c(-c2ccc(O)c(O)c2)oc2cc(O)cc(O)c12 [Quercetin, quercetin]
Reducing Power IC0.5 (Reducing power assay): 3.760 ± 2.979 ^a µg/mL
DPPH IC50 [1]: 37.361 ± 21.356 ^b µg/mL
